{"source": "patent US11026910B2", "about": "“α- and γ-truxillic acid derivatives and pharmaceutical compositions thereof” (The Research Foundation for The State University of New York, priority 2012, dated 2021)", "key": {"wild-type HeLa cells": {"system": "wild-type HeLa cells", "assay": "AEA uptake in wild-type HeLa cells", "assay_type": "cell-based", "experimental": "AEA uptake assays in wild-type and FABP5 knockdown HeLa cells were performed exactly as described (Kaczocha, M. et al. 2012)."}, "rat FAAH": {"target": "T1, rat FAAH (Rattus norvegicus, UniProt P97612)", "T1 construct": "expressed in transfected cells; host or cells: HeLa", "T1 sequence (P97612 1-579)": "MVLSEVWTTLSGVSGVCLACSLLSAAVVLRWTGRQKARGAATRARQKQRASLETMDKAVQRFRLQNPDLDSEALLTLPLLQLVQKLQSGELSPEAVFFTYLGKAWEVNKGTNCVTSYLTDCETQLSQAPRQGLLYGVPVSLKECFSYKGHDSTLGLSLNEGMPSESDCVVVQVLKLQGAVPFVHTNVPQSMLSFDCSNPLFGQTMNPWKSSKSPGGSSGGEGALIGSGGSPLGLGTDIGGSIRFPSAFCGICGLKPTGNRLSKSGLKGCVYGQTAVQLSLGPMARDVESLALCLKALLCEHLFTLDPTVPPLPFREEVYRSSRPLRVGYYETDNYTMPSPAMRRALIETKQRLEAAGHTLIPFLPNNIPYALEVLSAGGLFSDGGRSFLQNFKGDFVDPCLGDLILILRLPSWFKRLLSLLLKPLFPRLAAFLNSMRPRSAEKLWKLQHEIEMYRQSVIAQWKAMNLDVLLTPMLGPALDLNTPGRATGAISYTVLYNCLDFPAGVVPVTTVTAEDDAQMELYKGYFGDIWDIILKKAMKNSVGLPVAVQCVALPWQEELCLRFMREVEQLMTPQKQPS", "assay": "FAAH enzyme assay, hydrolysis of [14C]AEA in HeLa homogenates", "assay_type": "biochemical", "conditions": "FAAH-transfected HeLa homogenates"}, "PPARα": {"target": "T2, PPARα (Homo sapiens, UniProt Q07869)", "T2 construct": "expressed in transfected cells; host or cells: HeLa", "T2 sequence (Q07869 1-468)": "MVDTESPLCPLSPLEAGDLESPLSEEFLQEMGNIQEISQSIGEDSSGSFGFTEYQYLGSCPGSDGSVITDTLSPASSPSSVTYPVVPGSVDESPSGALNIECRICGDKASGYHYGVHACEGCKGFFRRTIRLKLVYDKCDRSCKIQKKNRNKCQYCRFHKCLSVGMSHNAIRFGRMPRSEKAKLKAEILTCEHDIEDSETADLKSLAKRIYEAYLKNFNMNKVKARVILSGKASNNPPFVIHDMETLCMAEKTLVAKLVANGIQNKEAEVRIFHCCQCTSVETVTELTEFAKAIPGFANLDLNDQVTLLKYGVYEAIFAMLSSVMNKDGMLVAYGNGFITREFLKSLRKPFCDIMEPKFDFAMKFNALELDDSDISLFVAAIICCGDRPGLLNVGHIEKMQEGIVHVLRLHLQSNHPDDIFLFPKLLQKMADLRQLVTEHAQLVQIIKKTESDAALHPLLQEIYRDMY", "assay": "PPARα transactivation in HeLa cells", "assay_type": "cell-based", "experimental": "(§1) PPARα and PPARγ transactivation assays were performed in HeLa cells exactly as described (Kaczocha, M. et al. 2012)."}, "PPARγ": {"target": "T3, PPARγ (Homo sapiens, UniProt P37231)", "T3 construct": "expressed in transfected cells; host or cells: HeLa", "T3 sequence (P37231 1-505)": "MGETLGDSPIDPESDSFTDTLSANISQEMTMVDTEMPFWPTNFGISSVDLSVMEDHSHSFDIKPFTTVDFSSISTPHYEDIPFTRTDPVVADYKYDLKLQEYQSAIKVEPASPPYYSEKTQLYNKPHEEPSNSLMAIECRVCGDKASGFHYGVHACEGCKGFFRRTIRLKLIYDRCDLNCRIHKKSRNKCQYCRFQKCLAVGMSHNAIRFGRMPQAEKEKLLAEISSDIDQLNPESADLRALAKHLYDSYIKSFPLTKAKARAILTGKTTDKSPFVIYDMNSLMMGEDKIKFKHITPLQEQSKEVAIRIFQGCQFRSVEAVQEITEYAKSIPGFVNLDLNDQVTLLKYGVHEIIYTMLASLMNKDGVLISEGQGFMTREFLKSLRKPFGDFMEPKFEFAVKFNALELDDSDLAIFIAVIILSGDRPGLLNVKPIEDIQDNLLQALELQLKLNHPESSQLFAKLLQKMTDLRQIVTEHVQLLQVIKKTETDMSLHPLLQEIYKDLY", "assay": "PPARγ transactivation in HeLa cells", "assay_type": "cell-based", "experimental": "as §1"}, "male C57Bl6 mice": {"system": "male C57Bl6 mice", "assay": "Formalin test", "assay_type": "in vivo", "experimental": "(§2) We used male C57Bl6 mice (22-30 g, Taconic Farms) for all experiments. The animals were group housed at room temperature and kept on a 12:12 hour light:dark cycle with ad libitum access to water and food. The animals were habituated to the experimental room for one week before testing. All experiments were approved by the Stony Brook University Institutional Animal Care and Use Committee. The experimenter was blinded to the treatment conditions of each animal.\nMice were habituated to the observation chamber (Plexiglas box, 25 cm×25 cm×25 cm) for 30 min prior to formalin injection. The mice subsequently received an injection of formalin (2.5% in saline, 20 μl) into the plantar surface of the right hind paw using a 27 gauge needle. The animals were immediately placed back into the observation, chamber and nocifensive behavior (time spent licking or biting the paw) was recorded for 60 min. The formalin test consists of two phases with the first phase (0-5 min) reflecting nociceptor activation and the second phase (15-45 min) reflecting an inflammatory pain response.\nBehavioral data are presented as means±S.E.M. for the vehicle and inhibitor-treated groups, each consisting of at least 6 animals. Statistical significance between vehicle and inhibitor groups was determined using unpaired t-tests or one-way ANOVA followed by Dunnett's post hoc analysis. In all cases, differences of p<0.05 were considered significant."}, "mice": {"system": "mice", "assay": "Acetic acid-induced writhing", "assay_type": "in vivo", "experimental": "as §2"}, "[1]": {"system": "brain levels of the endocannabinoid anandamide (AEA)", "assay": "Brain levels of the endocannabinoid anandamide (AEA)", "assay_type": "in vivo, mice", "conditions": "FIG. 17", "experimental": "as §2"}, "[2]": {"conditions": "6 hrs incubation, luciferase reporter"}}, "note": "Entries after “also recorded” stand apart in the source; their conditions may differ.", "data": [{"compound": "O=C(O)[C@H]1[C@@H](c2ccccc2)[C@@H](C(=O)Oc2cccc3ccccc23)[C@@H]1c1ccccc1", "note": "(single isomer, unassigned) [Compound 26, α-2,4-diphenyl-cyclobutane-1,3-dicarboxylic Acid mono-(1-naphthol) Ester]", "values": [{"measurement": "cellular AEA uptake / accumulation", "setting": "wild-type HeLa cells", "result": "significantly inhibited; also recorded: inhibits"}, {"measurement": "inhibition of FAAH (AEA hydrolysis)", "setting": "rat FAAH", "result": "does not inhibit"}, {"measurement": "activation of PPARα", "setting": "PPARα; [2]", "result": "~2", "unit": "fold"}, {"measurement": "agonism at PPARα", "setting": "PPARα; compared with GW7647", "result": "weak agonist"}, {"measurement": "activation of PPARγ", "setting": "PPARγ; [2]", "result": "~3", "unit": "fold"}, {"measurement": "agonism at PPARγ", "setting": "PPARγ; compared with rosiglitazone", "result": "weak agonist"}, {"measurement": "formalin test first phase (0-5 min) nocifensive behavior", "setting": "male C57Bl6 mice; 20 mg/kg, i.p. (FIG. 10A)", "result": "significantly reduced; also recorded: reduces"}, {"measurement": "formalin test second phase (15-45 min) nocifensive behavior", "setting": "male C57Bl6 mice; 20 mg/kg, i.p. (FIG. 10A)", "result": "only during the first phase"}, {"measurement": "first phase of formalin-induced nociception", "setting": "male C57Bl6 mice; FIG. 16B", "result": "reduce"}, {"measurement": "second phase of formalin-induced nociception", "setting": "male C57Bl6 mice; FIG. 16B", "result": "reduce"}, {"measurement": "antinociceptive effects with SR141716 (3 mg/kg) and GW6471 (4 mg/kg)", "setting": "mice; FIG. 16E", "result": "reversed"}, {"measurement": "acetic acid-induced writhing", "setting": "mice; FIGS. 16C-D", "result": "reduces"}, {"measurement": "brain levels of anandamide (AEA)", "setting": "[1]", "result": "elevates"}]}]}
